Experimental data as given in patent publication US6022895A, “Substituted amino compounds and their use as substances having an analgesic effect” (priority 1997, dated 2000).
Where a name gives a salt, the structure may show the parent alone.

biological target: T1, δ opiate receptor (Rattus norvegicus, UniProt P33533); experiment: δ opiate receptor binding (displacement of (3H)-2-D-ala-deltorphin II, rat brain membrane homogenate); design: species or system male Wistar rats; conditions: mean values ± standard deviations of ≥3 independent tests; 1 nmole/l (3H)-2-D-ala-deltorphin II; pH 7.4; 90 minutes at 37° C.; Ki from IC50 by Cheng-Prussoff equation
T1 construct: The rat brain, which was freshly prepared in each case, was homogenized; from tissue; host or cells: brain of male Wistar rats, without the cerebellum, pons and medulla oblongata (membrane homogenate)
T1 sequence (P33533 whole entry): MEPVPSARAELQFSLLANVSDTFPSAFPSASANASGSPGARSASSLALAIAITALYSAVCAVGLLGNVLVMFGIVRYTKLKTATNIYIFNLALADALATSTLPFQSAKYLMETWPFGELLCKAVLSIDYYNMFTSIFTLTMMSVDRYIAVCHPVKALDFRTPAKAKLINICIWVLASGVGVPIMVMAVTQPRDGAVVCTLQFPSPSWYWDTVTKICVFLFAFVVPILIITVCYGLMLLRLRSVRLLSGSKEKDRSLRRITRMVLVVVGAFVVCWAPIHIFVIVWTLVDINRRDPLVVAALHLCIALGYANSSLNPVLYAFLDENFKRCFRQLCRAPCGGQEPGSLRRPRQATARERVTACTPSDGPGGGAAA
Method: δ Opiate Receptor Binding Investigations
Tests to determine the affinity of the compounds of formula (I) according to the invention for the δ opiate receptor were performed on meninx homogenates (a homogenate of the brain of male Wistar rats, without the cerebellum, pons and medulla oblongata).
The rat brain, which was freshly prepared in each case, was homogenized for this purpose, while being cooled in ice, in 50 mmoles/l Tris-HCl (pH 7.4) and was centrifuged for 10 minutes at 5000 g and 4° C. After decanting and discarding the supernatant liquor, and taking up and homogenising the membrane sediment again in […] Tris-HCl (pH 7.4), the homogenate was subsequently centrifuged for 20 minutes at 20,000 g and 4° C. This washing step was repeated once more. Thereafter, the supernatant liquor was decanted, the membrane sediment was homogenized in cold 50 mmoles/l Tris-HCl, 20% glycerol (w/v), 0.01% bacitracin (w/v) (pH 7.4), and was frozen in aliquots until testing was performed. For the receptor binding tests, the aliquots were thawed and diluted 1:10 with the binding test buffer.
50 mmoles/l Tris-HCl, 5 mmoles/l MgCl2 (pH 7.4) supplemented with 0.1% (w/v) bovine serum albumin, with 1 nmole/l (^3 H)-2-D-ala-deltorphin II as the radioactive ligand, was used as the buffer in the binding test. The proportion of non-specific binding was determined in the presence of 10 μmoles/l naloxone.
In further batches, the compounds according to the invention were added in a series of concentrations and the displacement of the radioactive ligand from its specific binding was determined. The respective triple batches were incubated for 90 minutes at 37° C. and were subsequently harvested by means of filtration through glass fiber filters (GF/B) for the determination of the radioactive ligand bound to the membrane homogenate. The radioactivity of the glass fiber filter discs was measured in a β-counter after adding a scintillator.
The affinity of the compounds according to the invention for the δ opiate receptor was calculated by the mass action law, by means of non-linear regression, as the IC50 value. Ki values were calculated from the IC50 values using the Cheng-Prussoff equation. The Ki values are given as mean values ± standard deviations of ≥3 tests which were independent of each other.

Row | SMILES | Ki
1 | C=CCN(C)CC1=C(c2cccc(O)c2)c2ccccc2CCC1 [Example 10, 3-{6-[allyl-methyl-amino)-methyl]-8,9-dihydro-7H-benzocyclohepten-5-yl}-phenol hydrochloride] | 679 ± 214 nM
2 | CC(CN(C)C)=C(c1cccc(O)c1)c1cccc(O)c1 [Example 11a, 3-[3-dimethylamino-1-(3-hydroxyphenyl)-2-methyl-propenyl]-phenol hydrochloride] | 34 ± 5.8 nM
3 | CCCCc1ccc2c(c1)C(c1cccc(O)c1)=C(CN(C)C)CC2 [Example 9c, 3-(7-n-butyl-2-dimethylaminomethyl-3,4-dihydronaphth-1-yl)-phenol hydrochloride] | 42.2 ± 16 nM
4 | CN(C)CC1=C(c2cccc(O)c2)c2ccccc2CCCC1 [Example 2f, 3-(6-dimethylaminomethyl-7,8,9,10-tetrahydrobenzocycloocten-5-yl)-phenol h ydrochloride] | 46.3 ± 10.1 nM
5 | CN(C)CC1=C(c2cccc(O)c2)c2ccc3ccccc3c2CC1 [Example 2j, 3-(2-dimethylaminomethyl-3,4-dihydro-phenanthren-1-yl)-phendlydrochloride] | 80.8 ± 29.7 nM
6 | CN(CCc1ccccn1)CC1=C(c2cccc(O)c2)c2ccccc2CCC1 [Example 2h, 3-(6-{[methyl-(2-pyridin-2-yl-ethyl)-amino]-methyl)-8,9-dihydro-7H-benzocyclohepten-5-yl)-phenol dihydrochloride] | 223 ± 86 nM
7 | CN(C)CC1=C(c2cccc(O)c2)c2cc(-c3ccccc3)ccc2CC1 [Example 9b, 3-(2-dimethylaminomethyl-7-phenyl-3,4-dihydronaphth-1-yl)-phenol hydrochloride] | 39.3 ± 2.2 nM
8 | CN(CC1=C(c2cccc(O)c2)c2ccccc2CCC1)CC1CC1 [Example 2g, 3-{6-[(cyclopropylmethyl-methyl-amino)-methyl]-8,9-dihydro-7H-benzocyclohepten-5-yl}-phenol hydrochloride] | 182 ± 12 nM
9 | CN(C)CC1=C(c2cccc(O)c2)c2cc(Oc3ccccc3)ccc2CC1 [Example 8, 3-(2-dimethylaminomethyl-7-phenoxy-3,4-dihydro-naphth-1-yl)-phenol hydrochloride] | 25.7 ± 10.2 nM
10 | COc1cccc2c1CCC(CN(C)C)=C2c1ccccc1 [Example 4, (5-methoxy-1-phenyl-3,4-dihydro-naphth-2-ylmethyl)-dimethylamine hydrochloride] | 517 ± 45 nM
11 | CN(C)CC1=C(c2cccc(O)c2)c2ccccc2C1 [Example 2i, 3-(2-dimethylaminomethyl-3H-inden-1-yl)-phenol hydrochloride] | 157 ± 16 nM
12 | CN(C)CC1=C(c2cccc(O)c2)c2ccccc2CC1 [Example 1, 3-(2-dimethylaminomethyl-3,4-dihydro-naphth-1-yl)-phenol hydrochloride] | 55.8 ± 4.6 nM
13 | CN(CCc1ccccc1)CC1=C(c2cccc(O)c2)c2ccccc2CCC1 [Example 2d, 3-{6-[(methyl-phenethyl-amino)-methyl]-8,9-dihydro-7H-benzocyclohepten-5-yl}-phenol hydrochloride] | 54.3 ± 8.2 nM
14 | COc1cccc2c1CCC(CN(C)C)=C2c1cccc(O)c1 [Example 9a, 3-(2-dimethylaminomethyl-5-methoxy-3,4-dihydronaphth-1-yl)-phenol hydrochloride] | 23.9 ± 0.9 nM
15 | COc1ccc2c(c1)CCC(CN(C)C)=C2c1ccccc1 [Example 3, (6-methoxy-1-phenyl-3,4-dihydro-naphth-2-ylmethyl)-dimethylamine hydrochloride] | 456 ± 62 nM
16 | CCCN(CCC)CC1=C(c2cccc(O)c2)c2ccccc2CCC1 [Example 2c, 3-(6-di-n-propylaminomethyl-8,9-dihydro-7H-benzocyclohepten-5-yl)-phenol h ydrochloride] | 294 ± 106 nM
17 | C/C(CN(C)C)=C(\c1ccc(-c2ccccc2)cc1)c1cccc(O)c1 [Example 11b, Z-3-(1-biphenyl-4-yl-3-dimethylamino-2-methyl-propenyl)-phenol hydrochloride] | 23.7 ± 1.7 nM
18 | CN(CC1=C(c2cccc(O)c2)c2ccccc2CCC1)Cc1ccccc1 [Example 2e, 3-{6-[(benzyl-methyl-amino)-methyl]-8,9-dihydro-7H-benzocyclohepten-5-yl}-phenol hydrochloride] | 936 ± 32 nM
19 | CN(C)CC1=C(c2cccc(O)c2)c2ccccc2CCC1 [Example 2a, 3-(6-dimethylaminomethyl-8,9-dihydro-7H-benzo-cyclohepten-5-yl)-phenol hydrochloride] | 17.2 ± 4.3 nM
20 | CN(C)CC1=C(c2cccc(O)c2)c2ccc(O)cc2CC1 [Example 6, 6-dimethylaminomethyl-5-(3-hydroxy-phenyl)-7,8-dihydro-naphth-2-ol hydrochloride] | 40.9 ± 6.7 nM
21 | CCN(CC)CC1=C(c2cccc(O)c2)c2ccccc2CCC1 [Example 2b, 3-(6-diethylaminomethyl-8,9-dihydro-7H-benzocyclohepten-5-yl)-phenol hydrochloride] | 728 ± 146 nM

tested on: μ-receptors; experiment: not given; conditions: background statement; cited from earlier work

Row | SMILES | selective binding to μ-receptors
22 | CN1CC[C@]23c4c5ccc(O)c4O[C@H]2[C@@H](O)C=C[C@H]3[C@H]1C5 [morphine] | selectively binds to what are termed μ-receptors
